From US10597388B2, “Pyridazinone herbicides” (FMC CORPORATION, priority 2014, dated 2020)

Columns and labels:
Experiment in all cases: Test C greenhouse herbicide test, pre- and postemergence
Format in all cases: in vivo
[1] = tested on: ragweed (common ragweed, Ambrosia elatior)
Summary of the method: (§1)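 Greenhouse pots; pre-em on seeded loam:sand blend, post-em on 2–18 cm plants (1–4 leaf) in sphagnum peat/vermiculite medium. Formulation: non-phytotoxic solvent + surfactant. Read-out: visual % control (0–100) vs controls at 13–15 d.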

[2] = tested on: ryegrass, Italian (Italian ryegrass, Lolium multiflorum)
Summary of the method: as §1

[3] = tested on: waterhemp (common waterhemp, Amaranthus rudis)
Summary of the method: as §1

[4] = tested on: nutsedge, yellow (yellow nutsedge, Cyperus esculentus)
Summary of the method: as §1

[5] = tested on: crabgrass, large (large crabgrass, Digitaria sanguinalis)
Summary of the method: as §1

[6] = tested on: morningglory (Ipomoea coccinea)
Summary of the method: as §1

[7] = tested on: pigweed (Amaranthus retroflexus)
Summary of the method: as §1

[8] = tested on: barnyardgrass (Echinochloa crus-galli)
Summary of the method: as §1

soybean (Glycine max) = tested on: soybean (Glycine max)
Summary of the method: as §1

[9] = tested on: blackgrass (Alopecurus myosuroides)
Summary of the method: as §1

[10] = tested on: velvetleaf (Abutilon theophrasti)
Summary of the method: as §1

[11] = tested on: lambsquarters (Chenopodium album)
Summary of the method: as §1

[12] = tested on: johnsongrass (Sorghum halepense)
Summary of the method: as §1

[13] = tested on: wheat (winter wheat, Triticum aestivum)
Summary of the method: as §1

corn (Zea mays) = tested on: corn (Zea mays)
Summary of the method: as §1

[14] = Postemergence, 31 g ai/ha, 0 to 100 scale (0 no effect, 100 complete control)
[15] = Postemergence, 125 g ai/ha, scale 0 to 100, 0 is no effect, 100 is complete control
[16] = Postemergence, 250 g ai/ha, scale 0 to 100, 0 no effect, 100 complete control, 13 to 15 d
[17] = Preemergence, 31 g ai/ha, scale 0 to 100, 0 is no effect, 100 is complete control
[18] = Preemergence, 62 g ai/ha, scale 0 to 100, 0 is no effect, 100 is complete control
[19] = Preemergence, 125 g ai/ha, scale 0 to 100, 0 is no effect, 100 is complete control
[20] = Preemergence, 250 g ai/ha, scale 0 to 100, 0 no effect, 100 complete control
[21] = postemergence, 62 g ai/ha, scale 0 to 100, 0 no effect, 100 complete control

## CCc1sc2ccc(C)cc2c1-c1c(O)c(C)nn(C)c1=O [Compound 47]
[1]; [14]
  Ragweed plant response rating: 80
[1]; [15]
  Plant response rating, Ragweed: 98
[1]; [16]
  Plant response rating, Ragweed: 100
[1]; [17]
  Plant response rating, Ragweed: 50
[1]; [18]
  Plant response rating, Ragweed: 85
[1]; [19]
  Plant response rating, Ragweed: 98
[1]; [20]
  Ragweed plant response rating: 100
[1]; [21]
  Ragweed plant response rating: 98
[2]; [14]
  Ryegrass, Italian plant response rating: 0
[2]; [15]
  Plant response rating, Ryegrass, Italian: 25
[2]; [16]
  Plant response rating, Ryegrass, Italian: 30
[2]; [17]
  Plant response rating, Ryegrass, Italian: 0
[2]; [18]
  Plant response rating, Ryegrass, Italian: 20
[2]; [19]
  Plant response rating, Ryegrass, Italian: 45
[2]; [20]
  Ryegrass, Italian plant response rating: 50
[2]; [21]
  Ryegrass, Italian plant response rating: 10
[3]; [14]
  Waterhemp plant response rating: 90
[3]; [15]
  Plant response rating, Waterhemp: 100
[3]; [16]
  Plant response rating, Waterhemp: 100
[3]; [17]
  Plant response rating, Waterhemp: 100
[3]; [18]
  Plant response rating, Waterhemp: 98
[3]; [19]
  Plant response rating, Waterhemp: 100
[3]; [20]
  Waterhemp plant response rating: 100
[3]; [21]
  Waterhemp plant response rating: 75
[4]; [14]
  Nutsedge, Yellow plant response rating: 40
[4]; [15]
  Plant response rating, Nutsedge, Yellow: 80
[4]; [16]
  Plant response rating, Nutsedge, Yellow: 90
[4]; [17]
  Plant response rating, Nutsedge, Yellow: 35
[4]; [18]
  Plant response rating, Nutsedge, Yellow: 45
[4]; [19]
  Plant response rating, Nutsedge, Yellow: 75
[4]; [20]
  Nutsedge, Yellow plant response rating: 85
[4]; [21]
  Nutsedge, Yellow plant response rating: 70
[5]; [14]
  Crabgrass, Large plant response rating: 20
[5]; [15]
  Plant response rating, Crabgrass, Large: 40
[5]; [16]
  Plant response rating, Crabgrass, Large: 35
[5]; [17]
  Plant response rating, Crabgrass, Large: 0
[5]; [18]
  Plant response rating, Crabgrass, Large: 30
[5]; [19]
  Plant response rating, Crabgrass, Large: 60
[5]; [20]
  Crabgrass, Large plant response rating: 95
[5]; [21]
  Crabgrass, Large plant response rating: 30
[6]; [14]
  Morningglory plant response rating: 100
[6]; [15]
  Plant response rating, Morningglory: 100
[6]; [16]
  Plant response rating, Morningglory: 100
[6]; [17]
  Plant response rating, Morningglory: 90
[6]; [18]
  Plant response rating, Morningglory: 100
[6]; [19]
  Plant response rating, Morningglory: 100
[6]; [20]
  Morningglory plant response rating: 95
[6]; [21]
  Morningglory plant response rating: 100
[7]; [14]
  Pigweed plant response rating: 90
[7]; [15]
  Plant response rating, Pigweed: 98
[7]; [16]
  Plant response rating, Pigweed: 98
[7]; [17]
  Plant response rating, Pigweed: 100
[7]; [18]
  Plant response rating, Pigweed: 100
[7]; [19]
  Plant response rating, Pigweed: 100
[7]; [20]
  Pigweed plant response rating: 100
[7]; [21]
  Pigweed plant response rating: 90
[8]; [14]
  Barnyardgrass plant response rating: 15
[8]; [15]
  Plant response rating, Barnyardgrass: 85
[8]; [16]
  Plant response rating, Barnyardgrass: 90
[8]; [17]
  Plant response rating, Barnyardgrass: 5
[8]; [18]
  Plant response rating, Barnyardgrass: 20
[8]; [19]
  Plant response rating, Barnyardgrass: 85
[8]; [20]
  Barnyardgrass plant response rating: 100
[8]; [21]
  Barnyardgrass plant response rating: 55
Soybean (Glycine max); [14]
  Soybean plant response rating: 0
Soybean (Glycine max); [15]
  Plant response rating, Soybean: 10
Soybean (Glycine max); [16]
  Plant response rating, Soybean: 15
Soybean (Glycine max); [17]
  Plant response rating, Soybean: 0
Soybean (Glycine max); [18]
  Plant response rating, Soybean: 0
Soybean (Glycine max); [19]
  Plant response rating, Soybean: 10
Soybean (Glycine max); [20]
  Soybean plant response rating: 30
Soybean (Glycine max); [21]
  Soybean plant response rating: 10
[9]; [14]
  Blackgrass plant response rating: 0
[9]; [15]
  Plant response rating, Blackgrass: 30
[9]; [16]
  Plant response rating, Blackgrass: 30
[9]; [17]
  Plant response rating, Blackgrass: 0
[9]; [18]
  Plant response rating, Blackgrass: 30
[9]; [19]
  Plant response rating, Blackgrass: 40
[9]; [20]
  Blackgrass plant response rating: 90
[9]; [21]
  Blackgrass plant response rating: 20
[10]; [14]
  Velvetleaf plant response rating: 70
[10]; [15]
  Plant response rating, Velvetleaf: 95
[10]; [16]
  Plant response rating, Velvetleaf: 95
[10]; [17]
  Plant response rating, Velvetleaf: 65
[10]; [18]
  Plant response rating, Velvetleaf: 90
[10]; [19]
  Plant response rating, Velvetleaf: 100
[10]; [20]
  Velvetleaf plant response rating: 100
[10]; [21]
  Velvetleaf plant response rating: 90
[11]; [14]
  Lambsquarters plant response rating: 85
[11]; [15]
  Plant response rating, Lambsquarters: 98
[11]; [16]
  Plant response rating, Lambsquarters: 85
[11]; [17]
  Plant response rating, Lambsquarters: 100
[11]; [18]
  Plant response rating, Lambsquarters: 100
[11]; [19]
  Plant response rating, Lambsquarters: 100
[11]; [20]
  Lambsquarters plant response rating: 100
[11]; [21]
  Lambsquarters plant response rating: 85
[12]; [14]
  Johnsongrass plant response rating: 10
[12]; [15]
  Plant response rating, Johnsongrass: 20
[12]; [16]
  Plant response rating, Johnsongrass: 25
[12]; [17]
  Plant response rating, Johnsongrass: 0
[12]; [18]
  Plant response rating, Johnsongrass: 0
[12]; [19]
  Plant response rating, Johnsongrass: 0
[12]; [20]
  Johnsongrass plant response rating: 0
[12]; [21]
  Johnsongrass plant response rating: 10
[13]; [14]
  Wheat plant response rating: 0
[13]; [15]
  Plant response rating, Wheat: 0
[13]; [16]
  Plant response rating, Wheat: 0
[13]; [17]
  Plant response rating, Wheat: 0
[13]; [18]
  Plant response rating, Wheat: 0
[13]; [19]
  Plant response rating, Wheat: 0
[13]; [20]
  Wheat plant response rating: 0
[13]; [21]
  Wheat plant response rating: 0
Corn (Zea mays); [14]
  Corn plant response rating: 0
Corn (Zea mays); [15]
  Plant response rating, Corn: 10
Corn (Zea mays); [16]
  Plant response rating, Corn: 5
Corn (Zea mays); [17]
  Plant response rating, Corn: 0
Corn (Zea mays); [18]
  Plant response rating, Corn: 0
Corn (Zea mays); [19]
  Plant response rating, Corn: 0
Corn (Zea mays); [20]
  Corn plant response rating: 5
Corn (Zea mays); [21]
  Corn plant response rating: 5
